Series [1] deals with adult Schistosoma mansoni worms. As to the kind of experiment: Inhibitor studies on cultured adult worms (unpairing, mortality). The series is classed as cell-based. The protocol: […] Control worms were treated with equal amounts of carrier. Worms were subsequently observed for unpairing, motility, and mortality, and were collected at the indicated time intervals for analysis. Worms were homogenized by sonication in PBS and homogenates were assayed for TrxR and GR activities as described above. […] Each assay was done in triplicate and each experiment was done three times.

The target in a further series is TGR (Schistosoma mansoni, UniProt Q962Y6). As to the kind of experiment: TrxR and GR activities of TGR in homogenates of treated worms. The series is classed as cell-based. Conditions: after 1 h of treatment with 10 μM AF, compared to control worms. As to the method:
AF was dissolved in DMSO and added to freshly perfused worms in DMEM to 10 μM. Control worms were treated with equal amounts of carrier. Worms were subsequently observed for unpairing, motility, and mortality, and were collected at the indicated time intervals for analysis. Worms were homogenized by sonication in PBS and homogenates were assayed for TrxR and GR activities as described above. […] Each assay was done in triplicate and each experiment was done three times.

A further series has as its system S. mansoni. As to the kind of experiment: Inhibitor studies on infected mice (worm burden). The series is classed as in vivo, Schistosoma mansoni. Particulars: for Total Worm Burden, Number of Worms, Mean ± SD / Total Worm Burden Reduction: 6 mg/kg twice daily for 9 d; for Total Worm Burden, Number of Worms, Mean ± SD: intraperitoneally; for Total Worm Burden Reduction: versus control, 6 mg/kg. The protocol: (§1) Mice (14-wk-old females; C57BL/6 in experiment 1, NIH-Swiss in experiment 2) infected with 60 S. mansoni cercariae were injected intraperitoneally with 6 mg/kg of AF twice daily for 9 d, beginning 7 wk post infection. Infected control mice were injected with equal amounts of carrier. Mice were perfused 1 wk after the final dose of AF and worm burdens were determined.

The test system of a further series is schistosomula. As to the kind of experiment: Schistosomula survival after RNAi and/or drug treatment. The series is classed as cell-based, Schistosoma mansoni. Conditions: AF at 2 μM; TGR dsRNA.
Series [2] in a line: Tolerability of AF dosage in mice. The series is classed as in vivo. Conditions: 6 mg/kg twice daily for 9 d. As to the method: as §1
For series [3], the target named is T1, S. mansoni TGR (Schistosoma mansoni, UniProt Q962Y6).
T1 sequence (Q962Y6 1-598): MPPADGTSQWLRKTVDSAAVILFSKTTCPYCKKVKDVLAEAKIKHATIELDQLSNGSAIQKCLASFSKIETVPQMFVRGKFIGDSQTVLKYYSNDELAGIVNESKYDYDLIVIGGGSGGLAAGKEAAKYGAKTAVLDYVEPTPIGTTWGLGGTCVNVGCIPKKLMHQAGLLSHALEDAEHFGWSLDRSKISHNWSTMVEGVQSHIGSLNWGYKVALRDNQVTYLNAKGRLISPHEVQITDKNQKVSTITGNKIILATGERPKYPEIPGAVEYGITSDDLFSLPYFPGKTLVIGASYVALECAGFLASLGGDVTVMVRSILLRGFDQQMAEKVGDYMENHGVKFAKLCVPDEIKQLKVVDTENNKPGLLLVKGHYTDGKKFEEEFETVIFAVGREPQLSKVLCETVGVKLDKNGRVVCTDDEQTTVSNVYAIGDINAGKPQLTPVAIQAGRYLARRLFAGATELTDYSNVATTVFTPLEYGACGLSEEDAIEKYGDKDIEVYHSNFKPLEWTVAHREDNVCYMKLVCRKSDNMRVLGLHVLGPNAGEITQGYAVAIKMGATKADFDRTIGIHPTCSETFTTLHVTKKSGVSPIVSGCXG
Protocol: (§2) Assays were performed at 25 °C in 0.1 M potassium phosphate (pH 7.4), 10 mM EDTA using 100 μM NADPH unless otherwise stated.
(§3) Initial inhibitor screens were conducted in 200 μl volumes in 96 well plates with 50 μM inhibitor, 100 μM NADPH, and 5 nM TGR in 0.1 M potassium phosphate (pH 7.4), 10 mM EDTA with a preincubation step of 15 min. […] All assays were done in triplicate.

The next series concerns the target T2, Human GR (Homo sapiens, UniProt P00390).
T2 sequence (P00390 44-522): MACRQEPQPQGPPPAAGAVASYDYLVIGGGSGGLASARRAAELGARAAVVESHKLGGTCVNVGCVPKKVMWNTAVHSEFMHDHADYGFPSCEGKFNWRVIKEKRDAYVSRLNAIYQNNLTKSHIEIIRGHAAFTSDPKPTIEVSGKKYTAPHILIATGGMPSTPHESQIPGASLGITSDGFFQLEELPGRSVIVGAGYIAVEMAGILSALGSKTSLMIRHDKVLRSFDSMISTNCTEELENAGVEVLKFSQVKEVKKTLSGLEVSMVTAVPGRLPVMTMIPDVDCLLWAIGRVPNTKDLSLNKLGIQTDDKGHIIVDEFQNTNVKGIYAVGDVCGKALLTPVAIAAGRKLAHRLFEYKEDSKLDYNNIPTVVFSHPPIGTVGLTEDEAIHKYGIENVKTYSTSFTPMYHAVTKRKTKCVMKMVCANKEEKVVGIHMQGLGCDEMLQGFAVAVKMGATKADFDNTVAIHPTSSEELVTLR
Conditions: read-out: IC50 Human GR, GSSG; cited from earlier work.

A further series concerns the target T3, Human TrxR (Homo sapiens, UniProt Q16881).
T3 sequence (Q16881 1-499 isoform Q16881-5): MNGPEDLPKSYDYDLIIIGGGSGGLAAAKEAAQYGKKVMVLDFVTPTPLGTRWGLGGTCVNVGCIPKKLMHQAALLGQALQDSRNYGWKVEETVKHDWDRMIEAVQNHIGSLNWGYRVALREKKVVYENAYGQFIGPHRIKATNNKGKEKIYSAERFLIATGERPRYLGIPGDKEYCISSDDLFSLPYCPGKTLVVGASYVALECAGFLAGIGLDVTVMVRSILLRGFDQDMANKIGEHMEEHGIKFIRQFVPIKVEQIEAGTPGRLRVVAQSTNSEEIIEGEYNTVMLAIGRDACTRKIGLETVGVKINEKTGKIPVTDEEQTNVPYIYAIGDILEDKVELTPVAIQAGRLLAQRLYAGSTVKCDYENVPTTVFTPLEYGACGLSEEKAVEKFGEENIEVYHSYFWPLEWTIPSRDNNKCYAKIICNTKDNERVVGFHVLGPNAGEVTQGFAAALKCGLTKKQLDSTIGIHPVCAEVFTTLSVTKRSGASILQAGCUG
Conditions: read-out: IC50 Human TrxR, DTNB/Trx; cited from earlier work.

The next series has as its system mammalian cells. Also noted: method as in PMID 14561156. Conditions: cultured in 10 μM AF; cited from earlier work.
Series [4] has as its target T1, S. mansoni TGR. The experiment in a line: IC50, Grx activity of TGR (HED assay), 15 min preincubation. The series is classed as biochemical. Also noted: The entire TGR ORF plus the SECIS element was subcloned into pET-24a; made in house; host or cells: Escherichia coli BL21(DE3) with pSUABC. Conditions: 8 mM HED plus 1 mM GSH, 15 min preincubation with 100 μM NADPH.
Protocol: as §2, §3

Values joined by “and” are separate entries in the source; they are usually repeats but may differ in a detail not shown here. Equal values may be shown once.

Protocol for schistosomula: Cercariae were mechanically transformed to schistosomula by vortexing, and bodies were separated from tails by Percoll gradient centrifugation as described [13]. Immediately after transformation, TGR dsRNA or irrelevant dsRNA (each at 54 μg/ml) was added to ~500 schistosomula in 50 μl water followed by incubation at 37 °C for 30 min. After addition of 250 μl of RPMI-1640 medium, 300 U/ml penicillin, and 175 μg/ml streptomycin, parasites were incubated at 37 °C in 5% CO2 atmosphere for 4 d. Reduced O2 tension was obtained by filtering media and purging with 95% N2, 5% CO2 for 20 min before use. Parasites were cultured during the course of the experiment in the appropriate gaseous mix at 37 °C in a sealed modular incubator chamber (Billups-Rothenberg, http://www.brincubator.com) flushed with the same gaseous mix. On day 2 of the experiment, 50 μl of fresh media was added. Schistosomula were assessed daily for viability by microscopy. For each time point at least 1,500 parasites were scored as alive or dead in each experiment (three replicates of 500 each), and each experiment was repeated three times.
(B) Parasites were cultured in the presence of double-stranded TGR RNA (dashed lines) or of double-stranded irrelevant RNA (solid lines) in 20% O2 (♦) or 0% O2 (). […] (C) Combination of RNAi and drug treatments. Solid lines are irrelevant dsRNA treatments and dashed lines are dsTGR treatments; no additions (♦), 2 μM praziquantel () and 2 μM AF (▴). […] In each experiment for each time point at least 1,500 parasites were scored as alive or dead (three replicates of 500 parasites). The error bars represent the standard deviations of three independent experiments.

With `CC(=O)OC[C@H]1O[C@@H]([S-])[C@H](OC(C)=O)[C@@H](OC(C)=O)[C@@H]1OC(C)=O.CCP(CC)CC.[Au+]` [AF, auranofin], in series [1] (5 μM AF), the “Time to adult worm death” value is given as 24 h. In [1] (10 μM AF), the “Mortality of adult worms after 6 h” value is 83%; the “Mortality of adult worms after 9 h” value stood at 100%; the “Time to unpairing of male and female worms” value was determined as 1 h. The “Concentration able to kill parasites rapidly in culture” value in series [1] (physiological concentration, abstract) worked out at 5 µM. Besides, at TGR, the “Inhibition of GR activity of TGR in worm homogenates” value is around 100% and the “Inhibition of TrxR activity of TGR in worm homogenates” value is around 100%. In addition, the “Total Worm Burden, Number of Worms, Mean ± SD” value in the series with S. mansoni (C57BL/6 mice) was 12 ± 7.8. Further, the “Total Worm Burden Reduction” value with S. mansoni (C57BL/6 mice, p < 0.015) is 59% and 59^a %. The “Total Worm Burden, Number of Worms, Mean ± SD” value with S. mansoni (NIH-Swiss mice) stood at 8.6 ± 1.7. In the series on S. mansoni (NIH-Swiss mice, p < 0.001), the “Total Worm Burden Reduction” value is 63% and 63^b %. The “Worm burden reductions in infected mice” value with S. mansoni (summary value of abstract) is 60% and ~ 60%. Besides, in the series with schistosomula, the “Schistosomula survival after 1 d” value is given as 93.7% and the “Schistosomula survival after 2 d” value was 66.1%. The Tolerability in mice result in [2] is “well tolerated”. For the same molecule, the activity on S. mansoni TGR [3] was determined as 0%. For the same molecule, the IC50 on Human GR was 40000 nM. The IC50 on Human TrxR is 20 nM. Besides, in the series with mammalian cells, the “Viability of mammalian cells” value was “over 95%”. Also, at S. mansoni TGR [4], the IC50 was 6 nM.

These data come from article PMC1892040 (PLoS Medicine, 2007).
